The structures appear in SMILES notation.

A word on the IC50: it is the point on the concentration scale where inhibition reaches its midpoint.

The target of the experiment is T1, human TLR8 (Homo sapiens, UniProt Q9NR97).
T1 construct: host or cells: HEK-Blue cells
T1 sequence (Q9NR97 27-1041): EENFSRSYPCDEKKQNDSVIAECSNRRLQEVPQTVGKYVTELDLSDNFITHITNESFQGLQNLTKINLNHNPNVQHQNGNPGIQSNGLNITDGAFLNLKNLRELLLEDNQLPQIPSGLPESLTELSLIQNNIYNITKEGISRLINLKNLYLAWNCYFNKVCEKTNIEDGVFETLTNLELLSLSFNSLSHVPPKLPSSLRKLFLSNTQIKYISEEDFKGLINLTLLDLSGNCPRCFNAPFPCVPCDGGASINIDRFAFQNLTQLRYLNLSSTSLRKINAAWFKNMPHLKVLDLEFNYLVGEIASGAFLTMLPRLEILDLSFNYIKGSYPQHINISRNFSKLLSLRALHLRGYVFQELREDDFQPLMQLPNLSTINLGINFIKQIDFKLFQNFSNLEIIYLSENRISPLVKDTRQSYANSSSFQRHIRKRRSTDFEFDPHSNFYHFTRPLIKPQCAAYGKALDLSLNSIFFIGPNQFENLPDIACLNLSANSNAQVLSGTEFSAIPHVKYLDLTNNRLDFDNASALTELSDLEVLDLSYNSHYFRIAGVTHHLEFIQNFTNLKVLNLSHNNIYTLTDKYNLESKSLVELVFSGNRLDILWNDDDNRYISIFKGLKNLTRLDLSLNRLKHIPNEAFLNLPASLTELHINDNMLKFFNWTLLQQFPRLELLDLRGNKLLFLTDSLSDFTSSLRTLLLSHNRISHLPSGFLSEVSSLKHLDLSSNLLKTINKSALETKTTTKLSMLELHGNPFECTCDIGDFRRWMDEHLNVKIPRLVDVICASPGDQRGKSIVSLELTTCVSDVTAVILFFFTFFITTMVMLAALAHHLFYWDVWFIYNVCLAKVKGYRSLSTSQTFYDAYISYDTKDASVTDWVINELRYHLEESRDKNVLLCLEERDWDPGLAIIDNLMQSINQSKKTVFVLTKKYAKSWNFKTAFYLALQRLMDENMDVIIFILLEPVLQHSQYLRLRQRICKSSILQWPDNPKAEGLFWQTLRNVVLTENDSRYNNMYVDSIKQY
As to the kind of experiment: TLR8 inhibition reporter assay (HEK-Blue cells, SEAP reporter, R848 stimulation). Format: cell-based. The conditions noted are these: HEK-Blue cells overexpressing human TLR8, R848 15.9 μM. An outline of the steps: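 In this cell reporter format, test compounds at 0.05 nM-50 μM final incubate 22 h with seeded cells (TLR7 15000, TLR8 20,000 per well). SEAP read-out by HEK-Blue Detection medium yields % inhibition relative to agonist/DMSO and known-inhibitor wells.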
In general terms: In a reporter assay the amount or activity of a reporter protein is the signal.
In the case of `COc1ccc(-c2[nH]c3ccc(C4CCN(C(=O)CCCN(C)C)CC4)cc3c2CC(F)(F)F)cc1OC` [Example 351, 1-(4-(2-(3,4-dimethoxyphenyl)-3-(2,2,2-trifluoroethyl)-1H-indol-5-yl)piperidin-1-yl)-4-(dimethylamino)butan-1-one], the IC50 was found to be 57 nM. Then `COc1ccc(-c2[nH]c3ccc(C4CCN(CC(=O)N5CCC(N6CCN(C)CC6)CC5)CC4)cc3c2CC(F)(F)F)cc1OC` [Example 363, 2-(4-(2-(3,4-dimethoxyphenyl)-3-(2,2,2-trifluoroethyl)-1H-indol-5-yl)piperidin-1-yl)-1-(4-(4-methylpiperazin-1-yl)piperidin-1-yl) ethan-1-one], with 44 nM. The same measure for `COc1ccc(-c2[nH]c3ccc(C4CCN(C(=O)Cc5c[nH]cn5)CC4)cc3c2CC(F)(F)F)cc1OC` [Example 334, 1-(4-(2-(3,4-dimethoxyphenyl)-3-(2,2,2-trifluoroethyl)-1H-indol-5-yl)piperidin-1-yl)-2-(1H-imidazol-4-yl)ethan-1-one]: 412 nM.

The compound `CCC(CC)NC(=O)CN1CCC(c2ccc3[nH]c(-c4ccc(OC)c(OC)c4)c(CC(F)(F)F)c3c2)CC1` [Example 378, 2-(4-(2-(3,4-dimethoxyphenyl)-3-(2,2,2-trifluoroethyl)-1H-indol-5-yl)piperidin-1-yl)-N-(pentan-3-yl)acetamide] registered an IC50 of 451 nM. The same measure for `COc1ccc(-c2[nH]c3ccc(C4CCN(C(=O)CCc5cccnc5)CC4)cc3c2CC(F)(F)F)cc1OC` [Example 348, 1-(4-(2-(3,4-dimethoxyphenyl)-3-(2,2,2-trifluoroethyl)-1H-indol-5-yl)piperidin-1-yl)-3-(pyridin-3-yl) propan-1-one]: 1420 nM; for `COc1ccc(-c2[nH]c3ccc(C4CCN(CC(=O)N(C)C)CC4)cc3c2CC(F)F)cc1OC` [Example 400, 2-(4-(3-(2,2-difluoroethyl)-2-(3,4-dimethoxyphenyl)-1H-indol-5-yl)piperidin-1-yl)-N,N-dimethylacetamide]: 110 nM; for `COc1ccc(-c2[nH]c3ccc(C4CCN(CC(=O)NCC(N)=O)CC4)cc3c2CC(F)(F)F)cc1OC` [Example 385, N-(2-amino-2-oxoethyl)-2-(4-(2-(3,4-dimethoxyphenyl)-3-(2,2,2-trifluoroethyl)-1H-indol-5-yl)piperidin-1-yl)acetamide]: 41 nM. The same measure for `COc1ccc(-c2[nH]c3ccc(C4CCN(C(=O)CS(C)(=O)=O)CC4)cc3c2CC(F)(F)F)cc1OC` [Example 347, 1-(4-(2-(3,4-dimethoxyphenyl)-3-(2,2,2-trifluoroethyl)-1H-indol-5-yl)piperidin-1-yl)-2-(methylsulfonyl)ethan-1-one]: 767 nM. Compound `COc1ccc(-c2[nH]c3ccc(C4CCN(CC(=O)N(C)CCN(C)C)CC4)cc3c2CC(F)(F)F)cc1OC` [Example 367, 2-(4-(2-(3,4-dimethoxyphenyl)-3-(2,2,2-trifluoroethyl)-1H-indol-5-yl)piperidin-1-yl)-N-(2-(dimethylamino)ethyl)-N-methylacetamide] had a half-maximal inhibitory concentration (IC50) of 36 nM. Then `COc1ccc(-c2[nH]c3ccc(C4CCN(CC(=O)N5CCN(C(C)=O)CC5)CC4)cc3c2CC(F)(F)F)cc1OC` [Example 361, 1-(4-acetylpiperazin-1-yl)-2-(4-(2-(3,4-dimethoxyphenyl)-3-(2,2,2-trifluoroethyl)-1H-indol-5-yl)piperidin-1-yl)ethan-1-one], with 109 nM; and `COc1ccc(-c2[nH]c3ccc(C4CCN(CC(=O)N5CC[C@H](N(C)C)C5)CC4)cc3c2CC(F)(F)F)cc1OC` [Example 374, (S)-2-(4-(2-(3,4-dimethoxyphenyl)-3-(2,2,2-trifluoroethyl)-1H-indol-5-yl)piperidin-1-yl)-1-(3-(dimethylamino)pyrrolidin-1-yl) ethan-1-one], with 35 nM; and `COc1ccc(-c2[nH]c3ccc(C4CCN(C(=O)Cc5nnn[nH]5)CC4)cc3c2CC(F)(F)F)cc1OC` [Example 341, 1-(4-(2-(3,4-dimethoxyphenyl)-3-(2,2,2-trifluoroethyl)-1H-indol-5-yl)piperidin-1-yl)-2-(1H-tetrazol-5-yl)ethan-1-one], with 9390 nM.

In turn, `COc1ccc(-c2[nH]c3ccc(C4CCN(C(=O)NCc5ccco5)CC4)cc3c2CC(F)(F)F)cc1OC` [Example 358, 4-(2-(3,4-dimethoxyphenyl)-3-(2,2,2-trifluoroethyl)-1H-indol-5-yl)-N-(furan-2-ylmethyl)piperidine-1-carboxamide] displayed an IC50 of 2920 nM. The same measure for `COc1ccc(-c2[nH]c3ccc(C4CCNCC4F)cc3c2C(C)C)cc1OC` (single isomer, unassigned) [Example 324, 2-(3,4-dimethoxyphenyl)-5-(3-fluoropiperidin-4-yl)-3-isopropyl-1H-indole]: 20 nM; for `COc1ccc(-c2[nH]c3ccc(C4CCN(CC(=O)N5CCC[C@@H]5CO)CC4)cc3c2CC(F)(F)F)cc1OC` [Example 371, (R)-2-(4-(2-(3,4-dimethoxyphenyl)-3-(2,2,2-trifluoroethyl)-1H-indol-5-yl)piperidin-1-yl)-1-(2-(hydroxymethyl)pyrrolidin-1-yl)ethan-1-one]: 52 nM.

In the case of `COc1ccc(-c2[nH]c3ccc(C4CCN(C(=O)CCCn5ccnc5)CC4)cc3c2CC(F)(F)F)cc1OC` [Example 331, 1-(4-(2-(3,4-dimethoxyphenyl)-3-(2,2,2-trifluoroethyl)-1H-indol-5-yl)piperidin-1-yl)-4-(1H-imidazol-1-yl)butan-1-one], the concentration for half-maximal inhibition (IC50) was determined as 221 nM. This IC50 lies about 4.2-fold higher than the previous one.

Compound `CCNC(=O)N1CCC(c2ccc3[nH]c(-c4ccc(OC)c(OC)c4)c(CC(F)(F)F)c3c2)CC1` [Example 356, 4-(2-(3,4-dimethoxyphenyl)-3-(2,2,2-trifluoroethyl)-1H-indol-5-yl)-N-ethylpiperidine-1-carboxamide] yielded an IC50 of 626 nM. Then `COc1ccc(-c2[nH]c3ccc(C4CCN(CC(=O)N5CCC(N6CCCCC6)CC5)CC4)cc3c2CC(F)(F)F)cc1OC` [Example 359, 1-([1,4′-bipiperidin]-1′-yl)-2-(4-(2-(3,4-dimethoxyphenyl)-3-(2,2,2-trifluoroethyl)-1H-indol-5-yl)piperidin-1-yl)ethan-1-one], with 63 nM. For `COc1ccc(-c2[nH]c3ccc(C4CCN(CC(=O)N5CCN(C(C)C)CC5)CC4)cc3c2CC(F)(F)F)cc1OC` [Example 362, 2-(4-(2-(3,4-dimethoxyphenyl)-3-(2,2,2-trifluoroethyl)-1H-indol-5-yl)piperidin-1-yl)-1-(4-isopropylpiperazin-1-yl)ethan-1-one], half-maximal inhibition (IC50) was put at 109 nM.

The compound `COc1ccc(-c2[nH]c3ccc(C4CCNCC4F)cc3c2C(C)C)cc1OC` (racemic) [Example 320, 2-(3,4-dimethoxyphenyl)-5-(3-fluoropiperidin-4-yl)-3-isopropyl-1H-indole] registered an IC50 of 124 nM. The same measure for `COc1ccc(-c2[nH]c3ccc(C4CCN(CC(=O)Nc5cc(C(C)(C)C)[nH]n5)CC4)cc3c2CC(F)(F)F)cc1OC` [Example 387, N-(5-(tert-butyl)-1H-pyrazol-3-yl)-2-(4-(2-(3,4-dimethoxyphenyl)-3-(2,2,2-trifluoroethyl)-1H-indol-5-yl)piperidin-1-yl)acetamide]: 587 nM; for `COc1ccc(-c2[nH]c3ccc(C4CCN(CC(=O)NCCCn5ccnc5)CC4)cc3c2CC(F)(F)F)cc1OC` [Example 383, N-(3-(1H-imidazol-1-yl)propyl)-2-(4-(2-(3,4-dimethoxyphenyl)-3-(2,2,2-trifluoroethyl)-1H-indol-5-yl)piperidin-1-yl)acetamide]: 30 nM; for `COc1ccc(-c2[nH]c3ccc(C4CCN(CC(=O)NCCc5ccc(S(N)(=O)=O)cc5)CC4)cc3c2CC(F)(F)F)cc1OC` [Example 384, 2-(4-(2-(3,4-dimethoxyphenyl)-3-(2,2,2-trifluoroethyl)-1H-indol-5-yl)piperidin-1-yl)-N-(4-sulfamoylphenethyl)acetamide]: 81 nM.

Take `COc1ccc(-c2[nH]c3ccc(C4CCN(C(=O)CN[C@H](C)C(C)C)CC4)cc3c2C2CCOCC2)cc1OC` [Example 394, (R)-1-(4-(2-(3,4-dimethoxyphenyl)-3-(tetrahydro-2H-pyran-4-yl)-1H-indol-5-yl)piperidin-1-yl)-2-((3-methylbutan-2-yl)amino)ethan-1-one]: the IC50 is 660 nM.

The values are drawn from patent publication US11180474B2 (BRISTOL-MYERS SQUIBB COMPANY, priority 2016, dated 2021).
